In PMC11975549, “Development of Potent Type V MAPK Inhibitors: Design, Synthesis, and Biological Evaluation of Benzothiazole Derivatives Targeting p38α MAPK in Breast Cancer Cells” (Archiv Der Pharmazie, 2025):
Like-named read-outs stand apart in the source and are kept apart here.

What was measured:
p38α MAPK [1] = conditions: cited from earlier work
prostate cancer cells = test system: prostate cancer cells; set-up: method as in PMID 31838901; conditions: cited from earlier work
normal prostate cells = test system: normal prostate cells; set-up: method as in PMID 31838901; conditions: cited from earlier work
p38α MAPK [2] = test system: p38α MAPK; set-up: method as in PMID 34328852; conditions: HeLa cells, compared with the control anisomycin (30 μM); cited from earlier work
HeLa cells = test system: HeLa cells; set-up: method as in PMID 34328852; conditions: cited from earlier work
MCF7 cell line = test system: MCF7 cell line; set-up: method as in PMID 30792101; conditions: MTT assay; cited from earlier work
MDA‐MB‐231 cell line = test system: MDA‐MB‐231 cell line; set-up: method as in PMID 30792101; conditions: MTT assay; cited from earlier work
MCF7 cells = test: MTT antiproliferative assay, MCF7; type: cell-based, human; conditions: for IC50: MTT, 24 h incubation; for Selectivity MCF7: Selectivity index = L929 IC50 / MCF7 IC50 (24 h)
Procedure: (§1) Cell culture experiments were performed to assess the antiproliferative efficacy of the synthesized benzothiazole compounds on the MCF7 and MDA‐MB‐231 cell lines. The anticancer activity of the compounds were compared with the L929 healthy cell line as a control. Doxorubicin and cisplatin, the anticancer agents, were employed as positive controls.
(§2) Human epithelial breast adenocarcinoma (MDA‐MB‐231) (ATCC® HTB‐26™), human epithelial breast adenocarcinoma (MCF7) (ATCC® HTB‐22™), and healthy mouse fibroblast (L929) (ATCC® CRL‐10317™) cells were obtained commercially from ATCC.
(§3) MDA‐MB‐231, MCF7, and L929 cells were seeded in 25 cm² flasks. DMEM medium containing 10% FBS, 1% Penicillin‐Streptomycin, L‐Glutamine, and NaHCO₃ was used as the cell culture medium. The cells were incubated and propagated at 37°C in an environment containing 5% CO₂ and 95% humidity. When the cells reached 80%–90% confluency, they were passaged to different media. During passaging, DMEM was first withdrawn, and the cells were washed with PBS to remove FBS from the medium. Then, Trypsin‐EDTA solution was added to the flask to detach the cells, and the flask was kept in a CO₂ incubator for approximately 1 min. To stop the activity of Trypsin‐EDTA medium containing FBS was added to the flask. The cells were collected into a Falcon tube and centrifuged at 800 rpm for 5 min at room temperature. The supernatant was discarded, and the cell pellet was resuspended in the medium and seeded on cell culture plates according to the experimental protocol.
(§4) A total of 2 mg of each compound was dissolved in an appropriate amount of dimethyl sulfoxide (DMSO) to prepare 10 mM stock solutions. These stock solutions were then diluted to create 100 μM intermediate stocks and stored at −80°C. Commercially purchased cisplatin and doxorubicin HCl (Sigma, St. Louis, MO) were dissolved in DMSO following the manufacturer's protocol to create 20 mM stock solutions. These standard drug molecules were diluted from the stock solution, divided into 100 μM aliquots, and stored at –80°C until use.
(§5) MTT analysis was performed to evaluate the in vitro cytotoxicity of the synthesized compounds against different cancer cell lines. Cells used in the cytotoxicity experiments were cultured in DMEM medium supplemented with 10% FBS. Cells suspended in the medium (2 × 10⁴ cells/mL) were seeded into 96‐well culture plates and incubated at 37°C in a 5% CO₂ incubator. After 12 h, compounds were added at different doses (2 µL) to cells (2 × 10⁴) in the 96‐well plates and incubated at 37°C for 24 h.
(§6) The incubated cells were then treated with 20 µL of MTT solution and incubated at 37°C for 4 h. The supernatant was carefully removed from each well, and 100 µL of DMSO was added to each well to dissolve the formazan crystals formed by the cellular reduction of MTT. The absorbance was measured at 570 nm using an ELISA reader. […] At the end of the experiment, the device calculated the IC50 value for each well, and the average values were recorded. Each experiment was performed in at least three replicates.

MDA‐MB‐231 cells = test: MTT antiproliferative assay, MDA-MB-231; type: cell-based, human; conditions: for IC50: MTT, 24 h incubation; for Selectivity MDA‐MB‐231: Selectivity index = L929 IC50 / MDA‐MB‐231 IC50 (24 h)
Procedure: as §1, §2, §3, §4, §5, §6

L929 cells = test: MTT cytotoxicity assay, L929 healthy cells; type: cell-based; conditions: healthy mouse fibroblast
Procedure: as §1, §2, §3, §4, §5, §6

p38 MAPKα = test: p38 MAPK alpha ELISA, total level in treated MCF7 cells normalised to total protein (BCA); type: cell-based, human; conditions: MCF7 cells exposed to compound
Text: To account for variations in protein quantities among the cells. The total protein concentrations in cells subjected to the drugs were quantified. The p38 MAPKα levels were adjusted by dividing by the protein levels, yielding results represented as ng/μg protein (Table 3).
A bicinchoninic acid (BCA) protein assay kit (catalog no. 23227) was obtained from Thermo‐Fisher Scientific (IL, USA) and used to detect total protein by the BCA assay. In this assay, the reaction between BCA, Cu²⁺ ions, and Cu⁺ ions form a purple complex in alkaline conditions. The absorbance of this complex was measured at 562 nm, and the results were expressed in mg/mL.
The p38 MAPK alpha ELISA Kit (ab221012; Abcam, Cambridge, MA) was used to measure the levels of […] in cell lysates according to the manufacturer's instructions. The SimpleStep Enzyme‐Linked Immunosorbent Assay (ELISA) kit was designed to assess total p38 MAPKα protein semi‐quantitatively. The SimpleStep ELISA uses a reporter‐conjugated detection antibody, and an affinity‐tag labeled capture antibody to immunocapture the sample analyte in solution. An anti‐tag antibody coating the well immobilizes the entire complex (capture antibody, analyte, and detection antibody).
Samples or controls were added to the wells, followed by the Antibody Cocktail to complete the test. After incubation, the wells were washed to remove unbound material. […] The levels of MAPK were normalized to total protein content.

p38α MAPK [3] = test system: p38α MAPK; set-up: method as in PMID 34894967; conditions: MCF‐7 cells; cited from earlier work

Row | Structure (SMILES) | IC50 (MCF7 cells; Homo sapiens, MCF7) [µM] | Selectivity MCF7 (MCF7 cells) | IC50 (MDA‐MB‐231 cells; Homo sapiens, MDA-MB-231) [µM] | Selectivity MDA‐MB‐231 (MDA‐MB‐231 cells) | IC50 (L929 cells; L929, 24 h incubation) [µM] | Total p38α MAPK levels (p38 MAPKα) [ng/μg protein] | further results
1 | COc1cccc(-c2nn(-c3ccccc3)cc2-c2ccncc2)c1 [Compound 4d] |  |  |  |  |  |  | IC50 (p38α MAPK [1]; relative selectivity in comparison to 15 other kinases, read-out: IC50 p38α): 0.515 µM
2 | O=C(CSc1nnc(COc2ccccc2)n1-c1ccc(F)cc1)Nc1nc2ccccc2s1 [Compound 13m] |  |  |  |  |  |  | IC50 (p38α MAPK [1]; read-out: IC50 p38α MAPK): 0.031 µM
3 | COc1cccc(CNC(=O)c2ccc(N3CCOCC3)c(NC(=O)Nc3ccc(F)cc3F)c2)c1 [Compound 5e] |  |  |  |  |  |  | viability, proliferation and migration of prostate cancer cells (prostate cancer cells): inhibited the viability and reduced the proliferation and migration; damage to normal prostate cells (normal prostate cells): without causing considerable damage
4 | COc1c(-c2cc(-c3ccc(F)cc3)c(C#N)c(=N)[nH]2)c(O)c(Br)c2occc12 [Compound 8h] |  |  |  |  |  |  | IC50 (p38α MAPK [1]; read-out: IC50 p38α MAPK): 0.27 µM
5 | O=c1oc2ccccc2c(O)c1C1=CC(c2ccc(F)cc2)NC(=S)N1 (centres unmarked) [Compound 7g] |  |  |  |  |  |  | suppression of p38α MAPK activation (p38α MAPK [2]): 0.64; reduction in cell viability (HeLa cells; 10 μM): 80%; reduction in cell viability (HeLa cells; 30 μM): 72%
6 | CCNC(=O)c1ccc(C)c(NC(=O)c2ccc3c(-c4ccc(Cl)cc4)n[nH]c3c2)c1 [Compound 11k, 3‐(4‐chlorophenyl)‐N‐(5‐(ethylcarbamoyl)‐2‐methylphenyl)‐1H‐indazole‐6‐carboxamide] |  |  |  |  |  |  | IC50 (p38α MAPK [1]; read-out: IC50 p38α MAPK): 3.37 ± 0.24 µM
7 | COc1c(C(=O)/C=C/c2ccc(C)o2)c(O)c(Br)c2occc12 [Compound 9i] |  |  |  |  |  |  | IC50 (p38α MAPK [1]; read-out: IC50 p38α MAP kinase): 0.04 µM; IC50 (MCF7 cell line): 1.35 µM; IC50 (MDA‐MB‐231 cell line): 2.09 µM
8 | O=C(NCc1nc2ccccc2s1)c1cccs1 [Compound 14, N‐(Benzo[d]thiazol‐2‐ylmethyl) thiophene‐2‐carboxamide] | 10.6 ± 0.16 | 2.096 | 16 ± 0.68 | 1.391 | 22.2 ± 0.68 | 0.199 ± 0.011 | 
9 | O=C(Cc1ccc(F)cc1)Nc1nc2ccccc2s1 [Compound 22, N‐(Benzo[d]thiazol‐2‐yl)‐2‐(4‐fluorophenyl) acetamide] |  | 41.697 |  | 55.413 |  | 3.952 ± 0.311 | IC50 (MCF7 cells): 5.05 ± 0.01 µM; IC50 (MDA‐MB‐231 cells): 3.8 ± 0.28 µM; IC50 (L929 cells; 24 h incubation): 210.6 ± 1.67 µM
10 | Cc1ccc(C(=O)Nc2nc3ccccc3s2)cc1 [Compound 8, N‐(Benzo[d]thiazol‐2‐yl)‐4‐methylbenzamide] | 4.69 ± 0.05 | 1.373 | 5.2 ± 0.19 | 1.238 | 6.44 ± 0.05 | 9.541 ± 0.099 | 
11 | Clc1cccc(Cl)c1Nc1ccccc1Cc1nncn1Nc1nc2ccccc2s1 [Compound 12l] |  |  |  |  |  |  | IC50 (p38α MAPK [1]; read-out: IC50 p38α MAPK): 0.036 µM
12 | O=C(Nc1nc2ccccc2s1)c1cccs1 [Compound 3, N‐(Benzo[d]thiazol‐2‐yl) thiophene‐2‐carboxamide] | 16 ± 0.46 | 2.209 | 15 ± 0.57 | 2.345 | 35.2 ± 0.95 | 0.43 ± 0.005 | 
13 | Cc1ccc(C(=O)/C=C/c2ccc(Oc3ccc(Br)cc3)cc2)cc1 [Compound 10j] |  |  |  |  |  |  | total p38α MAPK and phosphorylated enzyme levels (p38α MAPK [3]): reduced
14 | O=C(NCc1nc2ccccc2s1)c1ccccc1 [Compound 10, N‐(Benzo[d]thiazol‐2‐ylmethyl) benzamide] | 5.64 ± 0.34 | 7.238 | 13.5 ± 0.54 | 3.019 | 40.82 ± 0.12 | 0.535 ± 0.079 | 
15 | COc1cccc(CC(=O)Nc2nc3ccccc3s2)c1 [Compound 21, N‐(Benzo[d]thiazol‐2‐yl)‐2‐(3‐methoxyphenyl) acetamide] |  | 9.354 |  | 10.330 |  | 1.333 ± 0.007 | IC50 (MCF7 cells): 7.09 ± 0.02 µM; IC50 (MDA‐MB‐231 cells): 6.42 ± 0.07 µM; IC50 (L929 cells; 24 h incubation): 66.3 ± 1.82 µM
16 | O=C(Nc1nc2ccccc2s1)c1ccc(Cl)cc1 [Compound 9, N‐(Benzo[d]thiazol‐2‐yl)‐4‐chlorobenzamide] | 3.49 ± 0.32 | 1.842 | 6.02 ± 0.18 | 1.068 | 6.43 ± 0.05 | 0.166 ± 0.015 | 
17 | COc1c(-c2cc(-c3ccc(C)o3)c(C#N)c(N)n2)c(O)c(Br)c2occc12 [Compound 6f] |  |  |  |  |  |  | IC50 (p38α MAPK [1]; read-out: IC50 p38α MAP kinase): 0.04 µM
18 | CS(=O)(=O)CCNCc1ccc(-c2ccc3ncnc(Nc4ccc(OCc5cccc(F)c5)c(Cl)c4)c3c2)o1 [lapatinib] |  |  |  |  |  |  | IC50 (MCF7 cell line): 4.69 µM; IC50 (MDA‐MB‐231 cell line): 4.69 µM
19 | COc1ccc(C(=O)Nc2nc3ccccc3s2)cc1 [Compound 1, N‐(Benzo[d]thiazol‐2‐yl)‐4‐methoxybenzamide] | 11 ± 0.27 | 2.227 | 15.8 ± 0.75 | 1.549 | 24.5 ± 0.56 | 7.367 ± 1.291 | 
